Test results reported in US20060069132A1, “Azolecarboxamide herbicides” (priority 2004, published 2006).

Tests used:
[1] = test system: goosegrass; test: Test C pre-/postemergence herbicide test; assay type: in vivo, Eleusine indica
Procedure, shortened: (§1)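 Visual injury scores run from 0 (no effect) to 100 (complete control), assessed relative to untreated controls 12 to 14 days after treatment in the greenhouse. Chemicals were formulated in a non-phytotoxic solvent mixture with surfactant and applied to soil after planting or to emerged plants at the 1- to 4-leaf stage.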

[2] = test system: soybean; test: Test C pre-/postemergence herbicide test; assay type: in vivo, Glycine max
Procedure, shortened: as §1

[3] = test system: johnsongrass; test: Test C pre-/postemergence herbicide test; assay type: in vivo, Sorghum halepense
Procedure, shortened: as §1

[4] = test system: woolly cupgrass; test: Test C pre-/postemergence herbicide test; assay type: in vivo, Eriochloa villosa
Procedure, shortened: as §1

[5] = test system: large crabgrass; test: Test A pre-/postemergence herbicide test; assay type: in vivo, Digitaria sanguinalis
Procedure, shortened: (§2)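 Pre: seeded sandy loam, directed soil spray, compound in non-phytotoxic solvent + surfactant. Post: 1–2-leaf plants (2–10 cm), sprayed to runoff. Greenhouse ~10 d; visual injury vs untreated, 0–100 scale.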

[6] = test system: Surinam grass; test: Test C pre-/postemergence herbicide test; assay type: in vivo, Urochloa decumbens
Procedure, shortened: as §1

[7] = test system: eastern black nightshade; test: Test C pre-/postemergence herbicide test; assay type: in vivo, Solanum ptycanthum; conditions: preemergence
Procedure, shortened: as §1

[8] = test system: common (oilseed) sunflower; test: Test C pre-/postemergence herbicide test; assay type: in vivo, Helianthus annuus; conditions: preemergence
Procedure, shortened: as §1

[9] = test system: velvetleaf; test: Test A pre-/postemergence herbicide test; assay type: in vivo, Abutilon theophrasti
Procedure, shortened: as §2

[10] = 31 g ai/ha, preemergence, scale 0 to 100
[11] = 125 g ai/ha, scale 0 (no effect) to 100 (complete control), visual, 12 to 14 days, preemergence
[12] = Postemergence, 250 g ai/ha, scale 0 to 100, 0 no effect, 100 complete control
[13] = postemergence, 125 g ai/ha, scale 0 to 100
[14] = postemergence, 62 g ai/ha, scale 0 to 100
[15] = Postemergence, 500 g ai/ha, 0 to 100 scale, 0 no effect, 100 complete control
[16] = Postemergence, 2000 g ai/ha, 0 to 100 scale, 0 no effect, 100 complete control
[17] = Preemergence, 500 g ai/ha, visual rating, 0 to 100 scale (0 no effect, 100 complete control)
[18] = Preemergence, 2000 g ai/ha, visual rating, 0 to 100 scale (0 no effect, 100 complete control)
[19] = 125 g ai/ha, scale 0 (no effect) to 100 (complete control), visual, 12 to 14 days
[20] = 62 g ai/ha, preemergence, scale 0 to 100
[21] = 250 g ai/ha, scale 0-100, preemergence
[22] = 500 g ai/ha, scale 0 to 100 (0 no effect, 100 complete control), visual, 12 to 14 days, preemergence
[23] = 500 g ai/ha, scale 0 to 100 (0 no effect, 100 complete control), visual, 12 to 14 days

Compound: C=Cn1nc(C(C)(C)C)cc1C(=O)Nc1cccc(C(C)=NO)c1 [Compound 114]
- Plant response rating, Goosegrass [1, 10]: 20
- Plant response rating (0 = no effect, 100 = complete control), Goosegrass ([1]; 62 g ai/ha, preemergence): 40
- Plant response rating, Goosegrass [1, 11]: 80
- Plant response rating, Goosegrass [1, 12]: 70
- Plant response rating, Goosegrass [1, 13]: 60
- Plant response rating, Goosegrass [1, 14]: 60
- Plant response rating, Soybean [2, 10]: 60
- Plant response rating (0 = no effect, 100 = complete control), Soybean ([2]; 62 g ai/ha, preemergence): 70
- Plant response rating, Soybean [2, 12]: 70
- Plant response rating, Soybean [2, 13]: 70
- Plant response rating, Soybean [2, 14]: 70
- Plant response rating, Johnsongrass [3, 10]: 0
- Plant response rating (0 = no effect, 100 = complete control), Johnsongrass ([3]; 62 g ai/ha, preemergence): 20
- Plant response rating, Johnsongrass [3, 11]: 30
- Plant response rating, Johnsongrass [3, 12]: 70
- Plant response rating, Johnsongrass [3, 13]: 70
- Plant response rating, Johnsongrass [3, 14]: 70
- Plant response rating, Cupgrass, Woolly [4, 10]: 0
- Plant response rating, Cupgrass, Woolly [4, 11]: 10
- Plant response rating, Cupgrass, Woolly ([4]; 250 g ai/ha, scale 0 to 100 (0 no effect, 100 complete control), visual, 12 to 14 days, preemergence): 30
- Plant response rating, Cupgrass, Woolly [4, 12]: 70
- Plant response rating, Cupgrass, Woolly [4, 13]: 70
- Plant response rating, Cupgrass, Woolly [4, 14]: 70
- Crabgrass, Large plant response rating [5, 15]: 40
- Plant response rating, Crabgrass, Large [5, 16]: 60
- Crabgrass, Large plant response rating [5, 17]: 40
- Crabgrass, Large plant response rating [5, 18]: 85
- Plant response rating, Surinam Grass [6, 10]: 10
- Plant response rating (0 = no effect, 100 = complete control), Surinam Grass ([6]; 62 g ai/ha, preemergence): 10
- Plant response rating, Surinam Grass [6, 11]: 10
- Plant response rating, Surinam Grass [6, 12]: 20
- Plant response rating, Surinam Grass [6, 13]: 10
- Plant response rating, Surinam Grass [6, 14]: 10
- Plant response rating, Nightshade ([7]; 31 g ai/ha, scale 0 to 100): 20
- Plant response rating (0 = no effect, 100 = complete control), Nightshade ([7]; 62 g ai/ha): 70
- Plant response rating, Nightshade [7, 19]: 90
- Plant response rating, Sunflower ([8]; 31 g ai/ha, scale 0 to 100): 30
- Plant response rating (0 = no effect, 100 = complete control), Sunflower ([8]; 62 g ai/ha): 30
- Plant response rating, Sunflower [8, 19]: 30
- Velvetleaf plant response rating [9, 15]: 20
- Plant response rating, Velvetleaf [9, 16]: 20
- Velvetleaf plant response rating [9, 17]: 35
- Velvetleaf plant response rating [9, 18]: 60

Compound: CCOC(=O)c1cccc(NC(=O)c2nn(C(C)(C)CC)nc2CC)c1 [Compound 375]
- Plant response rating, Goosegrass [1, 20]: 60
- Plant response rating (0 = no effect, 100 = complete control), Goosegrass ([1]; 125 g ai/ha, preemergence): 100
- Plant response rating, Goosegrass [1, 21]: 100
- Plant response rating, Goosegrass [1, 12]: 50
- Plant response rating, Goosegrass [1, 13]: 15
- Plant response rating, Goosegrass [1, 14]: 15
- Plant response rating, Soybean [2, 20]: 0
- Plant response rating (0 = no effect, 100 = complete control), Soybean ([2]; 125 g ai/ha, preemergence): 0
- Plant response rating, Soybean [2, 21]: 0
- Plant response rating, Johnsongrass [3, 20]: 0
- Plant response rating (0 = no effect, 100 = complete control), Johnsongrass ([3]; 125 g ai/ha, preemergence): 5
- Plant response rating, Johnsongrass [3, 21]: 5
- Plant response rating, Johnsongrass [3, 12]: 10
- Plant response rating, Johnsongrass [3, 13]: 5
- Plant response rating, Johnsongrass [3, 14]: 5
- Plant response rating, Cupgrass, Woolly [4, 20]: 60
- Plant response rating (0 = no effect, 100 = complete control), Cupgrass, Woolly ([4]; 125 g ai/ha, preemergence): 70
- Plant response rating, Cupgrass, Woolly [4, 21]: 70
- Plant response rating, Cupgrass, Woolly [4, 12]: 45
- Plant response rating, Cupgrass, Woolly [4, 13]: 30
- Plant response rating, Cupgrass, Woolly [4, 14]: 30
- Plant response rating, Surinam Grass [6, 20]: 55
- Plant response rating (0 = no effect, 100 = complete control), Surinam Grass ([6]; 125 g ai/ha, preemergence): 75
- Plant response rating, Surinam Grass [6, 21]: 80
- Plant response rating, Surinam Grass [6, 14]: 20
- Plant response rating, Nightshade ([7]; 62 g ai/ha, scale 0 to 100): 50
- Plant response rating (0 = no effect, 100 = complete control), Nightshade ([7]; 125 g ai/ha): 50
- Plant response rating, Nightshade ([7]; 250 g ai/ha, scale 0-100): 55
- Plant response rating, Sunflower ([8]; 62 g ai/ha, scale 0 to 100): 0
- Plant response rating (0 = no effect, 100 = complete control), Sunflower ([8]; 125 g ai/ha): 0
- Plant response rating, Sunflower ([8]; 250 g ai/ha, scale 0-100): 0

Compound: CCNC(=O)c1cccc(NC(=O)c2nn(C(C)(C)C)nc2C)c1 [Compound 392]
- Plant response rating, Goosegrass [1, 20]: 85
- Plant response rating (0 = no effect, 100 = complete control), Goosegrass ([1]; 125 g ai/ha, preemergence): 95
- Plant response rating, Goosegrass [1, 21]: 95
- Plant response rating, Goosegrass [1, 22]: 98
- Plant response rating, Soybean [2, 20]: 5
- Plant response rating (0 = no effect, 100 = complete control), Soybean ([2]; 125 g ai/ha, preemergence): 80
- Plant response rating, Soybean [2, 21]: 90
- Plant response rating, Soybean [2, 22]: 95
- Plant response rating, Johnsongrass [3, 20]: 85
- Plant response rating (0 = no effect, 100 = complete control), Johnsongrass ([3]; 125 g ai/ha, preemergence): 100
- Plant response rating, Johnsongrass [3, 21]: 100
- Plant response rating, Johnsongrass [3, 22]: 100
- Plant response rating, Cupgrass, Woolly [4, 20]: 30
- Plant response rating (0 = no effect, 100 = complete control), Cupgrass, Woolly ([4]; 125 g ai/ha, preemergence): 40
- Plant response rating, Cupgrass, Woolly [4, 21]: 60
- Plant response rating, Cupgrass, Woolly [4, 22]: 85
- Plant response rating, Surinam Grass [6, 20]: 50
- Plant response rating (0 = no effect, 100 = complete control), Surinam Grass ([6]; 125 g ai/ha, preemergence): 85
- Plant response rating, Surinam Grass [6, 21]: 85
- Plant response rating, Surinam Grass [6, 22]: 90
- Plant response rating, Nightshade ([7]; 62 g ai/ha, scale 0 to 100): 90
- Plant response rating (0 = no effect, 100 = complete control), Nightshade ([7]; 125 g ai/ha): 95
- Plant response rating, Nightshade ([7]; 250 g ai/ha, scale 0-100): 100
- Plant response rating, Nightshade [7, 23]: 100
- Plant response rating, Sunflower ([8]; 62 g ai/ha, scale 0 to 100): 10
- Plant response rating (0 = no effect, 100 = complete control), Sunflower ([8]; 125 g ai/ha): 50
- Plant response rating, Sunflower [8, 23]: 100

Compound: CCC1=NN(C(C)(C)C)CC1C(=O)Nc1cc(C(=O)N(C)C)ccc1F (racemic) [Compound 343]
- Plant response rating, Goosegrass [1, 20]: 60
- Plant response rating (0 = no effect, 100 = complete control), Goosegrass ([1]; 125 g ai/ha, preemergence): 75
- Plant response rating, Goosegrass [1, 21]: 80
- Plant response rating, Goosegrass [1, 22]: 85
- Plant response rating, Soybean [2, 20]: 40
- Plant response rating (0 = no effect, 100 = complete control), Soybean ([2]; 125 g ai/ha, preemergence): 80
- Plant response rating, Soybean [2, 21]: 100
- Plant response rating, Soybean [2, 22]: 100
- Plant response rating, Johnsongrass [3, 20]: 70
- Plant response rating (0 = no effect, 100 = complete control), Johnsongrass ([3]; 125 g ai/ha, preemergence): 80
- Plant response rating, Johnsongrass [3, 21]: 100
- Plant response rating, Johnsongrass [3, 22]: 100
- Plant response rating, Cupgrass, Woolly [4, 20]: 40
- Plant response rating (0 = no effect, 100 = complete control), Cupgrass, Woolly ([4]; 125 g ai/ha, preemergence): 65
- Plant response rating, Cupgrass, Woolly [4, 21]: 70
- Plant response rating, Cupgrass, Woolly [4, 22]: 100
- Plant response rating, Surinam Grass [6, 20]: 60
- Plant response rating (0 = no effect, 100 = complete control), Surinam Grass ([6]; 125 g ai/ha, preemergence): 85
- Plant response rating, Surinam Grass [6, 21]: 100
- Plant response rating, Surinam Grass [6, 22]: 100
- Plant response rating, Nightshade ([7]; 62 g ai/ha, scale 0 to 100): 60
- Plant response rating (0 = no effect, 100 = complete control), Nightshade ([7]; 125 g ai/ha): 60
- Plant response rating, Nightshade ([7]; 250 g ai/ha, scale 0-100): 90
- Plant response rating, Nightshade [7, 23]: 95
- Plant response rating, Sunflower ([8]; 62 g ai/ha, scale 0 to 100): 10
- Plant response rating (0 = no effect, 100 = complete control), Sunflower ([8]; 125 g ai/ha): 75
- Plant response rating, Sunflower ([8]; 250 g ai/ha, scale 0-100): 80
- Plant response rating, Sunflower [8, 23]: 100

Compound: CCn1nc(C(C)(C)C)cc1C(=O)Nc1cc(C(=S)N(C)C)ccn1 [Compound 334]
- Plant response rating, Goosegrass [1, 20]: 100
- Plant response rating, Goosegrass [1, 11]: 100
- Plant response rating, Goosegrass [1, 21]: 100
- Plant response rating, Soybean [2, 20]: 15
- Plant response rating, Soybean [2, 21]: 80
- Plant response rating, Johnsongrass [3, 20]: 90
- Plant response rating, Johnsongrass [3, 11]: 100
- Plant response rating, Johnsongrass [3, 21]: 100
- Plant response rating, Cupgrass, Woolly [4, 20]: 25
- Plant response rating, Cupgrass, Woolly [4, 11]: 60
- Plant response rating, Cupgrass, Woolly [4, 21]: 85
- Plant response rating, Surinam Grass [6, 20]: 55
- Plant response rating, Surinam Grass [6, 21]: 95
- Plant response rating, Nightshade ([7]; 62 g ai/ha, scale 0 to 100): 100
- Plant response rating, Nightshade [7, 19]: 100
- Plant response rating, Nightshade ([7]; 250 g ai/ha, scale 0-100): 100
- Plant response rating, Sunflower ([8]; 62 g ai/ha, scale 0 to 100): 5
- Plant response rating, Sunflower ([8]; 250 g ai/ha, scale 0-100): 55
